Assay results as given in patent US8501446B2 (Vertex Pharmaceuticals Incorporated, priority 2004, dated 2013).
pKi: −log10 of the molar value.

What was measured:
Format in all cases: biochemical
Aurora-C = biological target: T1, Aurora-C (Homo sapiens, UniProt Q9UQB9); experiment: Aurora-C inhibition assay, coupled enzyme system as for Aurora-A; settings: average Ki if more than one value determined
T1 sequence (Q9UQB9 1-309): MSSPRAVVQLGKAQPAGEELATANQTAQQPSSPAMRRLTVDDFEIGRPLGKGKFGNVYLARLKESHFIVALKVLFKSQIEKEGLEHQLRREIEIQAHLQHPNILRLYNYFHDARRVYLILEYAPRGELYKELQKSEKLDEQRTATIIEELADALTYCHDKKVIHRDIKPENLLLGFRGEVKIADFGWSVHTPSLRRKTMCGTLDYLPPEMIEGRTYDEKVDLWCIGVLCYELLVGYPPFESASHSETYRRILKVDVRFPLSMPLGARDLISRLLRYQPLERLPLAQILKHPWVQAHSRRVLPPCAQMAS
Experimental: Compounds were screened for their ability to inhibit full length Aurora-A (AA 1-403) activity using a standard coupled enzyme system (Fox et al., Protein Sci. 7, pp. 2249 (1998)). Reactions were carried out in a solution containing 100 mM HEPES (pH 7.5), 10 mM MgCl2, 25 mM NaCl, 300 μM NADH, 1 mM DTT and 3% DMSO. Final substrate concentrations in the assay were 200 μM ATP (Sigma Chemicals, St Louis, Mo.) and 800 μM peptide (LRRASLG, American Peptide, Sunnyvale, Calif.). Reactions were carried out at 30° C. and 35 nM Aurora-A. Final concentrations of the components of the coupled enzyme system were 2.5 mM phosphoenolpyruvate, 200 μM NADH, 60 μg/ml pyruvate kinase and 20 μg/ml lactate dehydrogenase.
An assay stock buffer solution was prepared containing all of the reagents listed above with the exception of ATP and the test compound of interest. The assay stock buffer solution (60 μl) was incubated in a 96 well plate with 2 μl of the test compound of interest at final concentrations spanning 0.002 μM to 30 μM at 30° C. for 10 min. Typically, a 12 point titration was conducted by preparing serial dilutions (from 1 mM compound stocks) with DMSO of the test compounds in daughter plates. The reaction was initiated by the addition of 5 μl of ATP (final concentration 200 μM). Rates of reaction were obtained using a Molecular Devices Spectramax plate reader (Sunnyvale, Calif.) over 10 min at 30° C. The Ki values were determined from the rate data as a function of inhibitor concentration using computerized nonlinear regression (Prism 3.0, Graphpad Software, San Diego, Calif.). Aurora-C activity was screened in a similar manner using Aurora-C protein. Aurora-B activity was screened using a radioactive assay, such as described in Examples 1 and 2, but using Aurora-B protein.

Aurora-B = Aurora-B (Homo sapiens, UniProt Q96GD4); experiment: Aurora-B inhibition assay, radioactive assay; settings: average Ki if more than one value determined
How it was run: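 Aurora-B protein substituted into the standard radioactive kinase format: reaction quenched with TCA, product captured on glass fiber filters and 33P counted. Ki(app) derived by fitting background-corrected counts against inhibitor concentration.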

ROCK I (AA 6-553) = biological target: T2, ROCK I (AA 6-553) (Homo sapiens, UniProt Q13464); experiment: ROCK inhibition assay, standard coupled enzyme system ("Enzyme"); settings: enzyme-linked assay
T2 construct: ROCK I (AA 6-553)
How it was run: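 ROCK I (AA 6-553) at 45 nM and 30 °C with 45 μM ATP and 200 μM peptide, in 100 mM HEPES pH 7.5, 10 mM MgCl2, 25 mM NaCl, 2 mM DTT, 1.5% DMSO. ADP output read by a PK/LDH coupled system: 2.5 mM PEP, 350 μM NADH, 30 μg/ml PK, 10 μg/ml LDH.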

[1] = biological target: T3, full length Aurora-A (AA 1-403) (Homo sapiens, UniProt O14965); experiment: Aurora-A inhibition assay, standard coupled enzyme system; settings: average Ki if more than one value determined
T3 construct: full length Aurora-A (AA 1-403)
T3 sequence (O14965 1-403): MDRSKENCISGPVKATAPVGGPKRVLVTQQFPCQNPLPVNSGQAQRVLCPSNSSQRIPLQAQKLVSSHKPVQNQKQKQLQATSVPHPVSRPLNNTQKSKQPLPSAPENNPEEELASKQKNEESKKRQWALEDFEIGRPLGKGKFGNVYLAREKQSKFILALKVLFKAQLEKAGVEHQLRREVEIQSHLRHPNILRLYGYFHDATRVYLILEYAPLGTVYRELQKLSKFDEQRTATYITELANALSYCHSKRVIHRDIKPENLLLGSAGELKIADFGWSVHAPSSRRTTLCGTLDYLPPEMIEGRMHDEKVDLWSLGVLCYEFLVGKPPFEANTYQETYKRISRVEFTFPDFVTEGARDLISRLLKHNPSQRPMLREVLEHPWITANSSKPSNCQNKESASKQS

JAK2 = JAK2 (Homo sapiens, UniProt O60674); experiment: JAK2 inhibition assay (radioactive enzyme assay, as for JAK3); settings: average Ki if more than one value determined
How it was run: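 Both kinases: poly(Glu)4Tyr substrate in 100 mM HEPES pH 7.4, 10 mM MgCl2, 1 mM DTT. Run 20 min at 25° C, TCA stop, filter-bound ³³P counted, Ki(app) fitted after background subtraction. JAK3: final [γ-³³P]ATP 5 μM, enzyme added as 2 nM solution. JAK2: final poly(Glu)4Tyr 15 μM, final ATP 12 μM.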

JAK2, sequence (O60674 whole entry, species assumed): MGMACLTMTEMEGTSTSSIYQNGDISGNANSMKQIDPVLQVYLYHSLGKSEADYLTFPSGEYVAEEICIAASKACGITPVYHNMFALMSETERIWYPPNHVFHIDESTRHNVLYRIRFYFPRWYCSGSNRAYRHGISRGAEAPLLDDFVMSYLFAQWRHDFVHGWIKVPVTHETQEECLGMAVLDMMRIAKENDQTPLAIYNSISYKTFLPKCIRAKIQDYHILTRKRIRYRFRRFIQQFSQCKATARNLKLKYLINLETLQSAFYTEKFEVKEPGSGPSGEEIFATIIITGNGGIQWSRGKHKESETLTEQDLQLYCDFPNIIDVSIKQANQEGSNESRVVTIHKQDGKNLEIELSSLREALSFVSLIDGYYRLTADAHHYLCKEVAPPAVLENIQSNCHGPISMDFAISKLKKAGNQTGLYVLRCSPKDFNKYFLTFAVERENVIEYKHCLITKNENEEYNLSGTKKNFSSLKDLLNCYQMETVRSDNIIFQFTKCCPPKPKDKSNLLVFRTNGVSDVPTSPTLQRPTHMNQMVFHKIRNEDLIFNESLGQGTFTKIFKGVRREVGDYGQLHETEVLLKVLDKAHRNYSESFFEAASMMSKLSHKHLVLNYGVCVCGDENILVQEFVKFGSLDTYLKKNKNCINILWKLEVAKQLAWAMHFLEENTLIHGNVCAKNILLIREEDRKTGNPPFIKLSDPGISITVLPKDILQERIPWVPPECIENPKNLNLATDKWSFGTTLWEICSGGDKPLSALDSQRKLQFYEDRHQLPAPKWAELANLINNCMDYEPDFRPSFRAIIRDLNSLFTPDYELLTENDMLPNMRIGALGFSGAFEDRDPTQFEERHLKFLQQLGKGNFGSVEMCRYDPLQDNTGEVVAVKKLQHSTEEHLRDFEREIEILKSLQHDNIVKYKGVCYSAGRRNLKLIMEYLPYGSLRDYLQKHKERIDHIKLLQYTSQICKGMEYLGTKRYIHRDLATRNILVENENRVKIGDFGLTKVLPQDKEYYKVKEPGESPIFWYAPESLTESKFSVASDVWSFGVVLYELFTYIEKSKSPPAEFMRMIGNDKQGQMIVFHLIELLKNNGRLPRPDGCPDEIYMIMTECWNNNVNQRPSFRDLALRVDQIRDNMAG
Aurora-B, sequence (Q96GD4 whole entry): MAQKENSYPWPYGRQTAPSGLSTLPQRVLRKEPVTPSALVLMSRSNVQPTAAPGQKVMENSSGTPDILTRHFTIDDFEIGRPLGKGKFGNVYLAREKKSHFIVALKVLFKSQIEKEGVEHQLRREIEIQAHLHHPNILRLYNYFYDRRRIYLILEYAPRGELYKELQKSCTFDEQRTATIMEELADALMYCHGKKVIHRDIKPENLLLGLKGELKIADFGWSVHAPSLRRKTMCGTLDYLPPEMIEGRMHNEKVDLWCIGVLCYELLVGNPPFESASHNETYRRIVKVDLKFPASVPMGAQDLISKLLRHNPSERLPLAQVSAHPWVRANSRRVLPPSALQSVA
T2 sequence (Q13464 6-553, species assumed): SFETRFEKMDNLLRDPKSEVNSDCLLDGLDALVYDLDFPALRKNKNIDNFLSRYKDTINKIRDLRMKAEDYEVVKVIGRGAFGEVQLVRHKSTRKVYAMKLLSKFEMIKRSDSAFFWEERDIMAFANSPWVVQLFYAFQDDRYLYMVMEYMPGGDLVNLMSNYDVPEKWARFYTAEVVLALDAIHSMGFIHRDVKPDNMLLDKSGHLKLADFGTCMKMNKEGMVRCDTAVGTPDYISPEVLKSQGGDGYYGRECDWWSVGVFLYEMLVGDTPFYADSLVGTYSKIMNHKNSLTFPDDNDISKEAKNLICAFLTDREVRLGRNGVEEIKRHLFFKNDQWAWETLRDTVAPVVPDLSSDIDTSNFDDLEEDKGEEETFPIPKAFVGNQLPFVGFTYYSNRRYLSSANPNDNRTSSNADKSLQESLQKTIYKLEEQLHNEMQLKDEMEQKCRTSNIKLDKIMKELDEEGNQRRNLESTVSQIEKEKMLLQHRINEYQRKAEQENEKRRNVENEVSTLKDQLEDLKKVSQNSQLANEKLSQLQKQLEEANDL

Row | Compound | pKi (Aurora-C) | pKi (Aurora-B) | pKi (ROCK I (AA 6-553)) | pKi [1] | pKi (JAK2)
1 | Fc1cnc(-c2c[nH]c3ncc(Cl)cc23)nc1NCC1CCNCC1 [Compound 327] | > 6.30 | > 6.30 | > 6.30 | > 6.30 | –
2 | Fc1cnc(-c2c[nH]c3ncc(Cl)cc23)nc1NCC1CCCN1 (stereo not drawn) [Compound 328] | > 6.30 | > 6.30 | 5.30 to 6.30 | > 6.30 | –
3 | Fc1cnc(-c2c[nH]c3ncc(Cl)cc23)nc1NCC1CCNC1 (stereo not drawn) [Compound 329] | > 6.30 | > 6.30 | > 6.30 | > 6.30 | –
4 | C[C@H](Nc1nc(-c2c[nH]c3ncc(Cl)cc23)ncc1F)c1cccc(N)c1 [Compound 333] | > 6.30 | > 6.30 | 5.30 to 6.30 | > 6.30 | –
5 | C[C@H](Nc1cc(CO)nc(-c2c[nH]c3ncc(Cl)cc23)n1)c1ccc(F)cc1 [Compound 339] | > 6.30 | > 6.30 | 5.30 to 6.30 | > 6.30 | –
6 | CNC(=O)[C@H](C)Nc1nc(-c2c[nH]c3ncc(Cl)cc23)ncc1F [Compound 340] | > 6.30 | > 6.30 | 5.30 to 6.30 | > 6.30 | –
7 | Fc1cnc(-c2c[nH]c3ncc(Cl)cc23)nc1NC1CCNCC1 [Compound 345] | 5.30 to 6.30 | 5.30 to 6.30 | > 6.30 | > 6.30 | –
8 | Fc1cnc(-c2c[nH]c3ncc(Cl)cc23)nc1NC1CCCNC1 (stereo not drawn) [Compound 347] | 5.30 to 6.30 | 5.30 to 6.30 | > 6.30 | > 6.30 | –
9 | Fc1cnc(-c2c[nH]c3ncc(Cl)cc23)nc1NC1CCOCC1 [Compound 348] | > 6.30 | > 6.30 | 5.30 to 6.30 | > 6.30 | –
10 | Fc1cnc(-c2c[nH]c3ncc(Cl)cc23)nc1NCC1CCCCC1 [Compound 349] | > 6.30 | > 6.30 | 5.30 to 6.30 | > 6.30 | –
11 | C[C@H](Nc1nc(-c2c[nH]c3ncc(Cl)cc23)ncc1F)C1CCCCC1 [Compound 355] | > 6.30 | > 6.30 | 5.30 to 6.30 | > 6.30 | –
12 | Fc1cnc(-c2c[nH]c3ncc(Cl)cc23)nc1NC1CCCCC1 [Compound 356] | > 6.30 | > 6.30 | 5.30 to 6.30 | > 6.30 | –
13 | CNC(=O)c1cc(N[C@@H](C)c2ccc(F)cc2)nc(-c2c[nH]c3ncc(Cl)cc23)n1 [Compound 359] | > 6.30 | > 6.30 | 5.30 to 6.30 | > 6.30 | –
14 | CC[C@H](Nc1nc(-c2c[nH]c3ncc(Cl)cc23)ncc1F)C(=O)NC [Compound 361] | > 6.30 | > 6.30 | 5.30 to 6.30 | > 6.30 | –
15 | CNC(=O)[C@@H](Nc1nc(-c2c[nH]c3ncc(Cl)cc23)ncc1F)C(C)C [Compound 362] | > 6.30 | > 6.30 | 5.30 to 6.30 | > 6.30 | –
16 | C[C@H](Nc1nc(-c2c[nH]c3ncc(Cl)cc23)ncc1F)C(=O)NCCNS(C)(=O)=O [Compound 368] | > 6.30 | > 6.30 | 5.30 to 6.30 | > 6.30 | –
17 | C[C@H](Nc1nc(-c2c[nH]c3ncc(Cl)cc23)ncc1C(=O)O)c1ccc(F)cc1 [Compound 370] | > 6.30 | > 6.30 | 5.30 to 6.30 | > 6.30 | –

Row | Compound | pKi (Aurora-C) | pKi (Aurora-B) | pKi (ROCK I (AA 6-553)) | pKi [1] | pKi (JAK2)
18 | C[C@H](Nc1nc(-c2c[nH]c3ncc(Cl)cc23)ncc1C(F)(F)F)c1ccc(F)cc1 [Compound 371] | > 6.30 | > 6.30 | 5.30 to 6.30 | > 6.30 | > 6.30
19 | C#Cc1cnc2[nH]cc(-c3ncc(F)c(N[C@@H](C)c4ccc(F)cc4)n3)c2c1 [Compound 374] | > 6.30 | > 6.30 | 5.30 to 6.30 | > 6.30 | –
20 | CCc1cnc(-c2c[nH]c3ncc(Cl)cc23)nc1N[C@@H](C)c1ccc(F)cc1 [Compound 386] | > 6.30 | > 6.30 | 5.30 to 6.30 | > 6.30 | > 6.30
21 | CNC(=O)[C@H](CO)Nc1nc(-c2c[nH]c3ncc(Cl)cc23)ncc1F [Compound 387] | > 6.30 | > 6.30 | 5.30 to 6.30 | > 6.30 | –
22 | C[C@H](Nc1nc(-c2c[nH]c3ncc(Cl)cc23)ncc1C#N)C(=O)NCC(F)(F)F [Compound 420] | > 6.30 | > 6.30 | 5.30 to 6.30 | > 6.30 | –
23 | O=C(CNc1nc(-c2c[nH]c3ncc(Cl)cc23)nc2ccccc12)NCC(F)(F)F [Compound 427] | 5.30 to 6.30 | 5.30 to 6.30 | 5.30 to 6.30 | > 6.30 | –
24 | CC(C)c1cnc(-c2c[nH]c3ncc(Cl)cc23)nc1N[C@@H](C)C(=O)NCC(F)(F)F [Compound 429] | 5.30 to 6.30 | 5.30 to 6.30 | 5.30 to 6.30 | > 6.30 | –
25 | CNC(=O)CNc1nc(-c2c[nH]c3ncc(Cl)cc23)ncc1C(C)C [Compound 430] | 5.30 to 6.30 | 5.30 to 6.30 | 5.30 to 6.30 | > 6.30 | –
26 | C[C@H](Nc1nc(-c2c[nH]c3ncc(Cl)cc23)ncc1F)C(=O)NCCN [Compound 431] | > 6.30 | > 6.30 | 5.30 to 6.30 | > 6.30 | –
27 | C[C@H](Nc1nc(-c2c[nH]c3ncc(Cl)cc23)ncc1F)C(=O)NCCn1cccc1 [Compound 443] | > 6.30 | > 6.30 | 5.30 to 6.30 | > 6.30 | > 6.30
28 | CC(=O)NCCNC(=O)[C@H](C)Nc1nc(-c2c[nH]c3ncc(Cl)cc23)ncc1F [Compound 444] | > 6.30 | > 6.30 | 5.30 to 6.30 | > 6.30 | 5.30 to 6.30
29 | C[C@H](Nc1nc(-c2c[nH]c3ncc(Cl)cc23)ncc1F)C(=O)NCCc1ccc(S(N)(=O)=O)cc1 [Compound 446] | > 6.30 | > 6.30 | 5.30 to 6.30 | > 6.30 | 5.30 to 6.30
30 | CCSCCNC(=O)[C@H](C)Nc1nc(-c2c[nH]c3ncc(Cl)cc23)ncc1F [Compound 447] | 5.30 to 6.30 | 5.30 to 6.30 | 5.30 to 6.30 | > 6.30 | –
31 | Cc1cc(N[C@@H](C)C(=O)NCCNS(C)(=O)=O)nc(-c2c[nH]c3ncc(Cl)cc23)n1 [Compound 450] | > 6.30 | > 6.30 | 5.30 to 6.30 | > 6.30 | 5.30 to 6.30
32 | CNCCNC(=O)[C@H](C)Nc1nc(-c2c[nH]c3ncc(Cl)cc23)ncc1F [Compound 452] | > 6.30 | > 6.30 | 5.30 to 6.30 | > 6.30 | –
33 | CC(C)S(=O)(=O)NCCNC(=O)[C@H](C)Nc1nc(-c2c[nH]c3ncc(Cl)cc23)ncc1F [Compound 454] | 5.30 to 6.30 | 5.30 to 6.30 | 5.30 to 6.30 | > 6.30 | –
